Measured values: patent US20230124142A1, “NEW THERAPEUTIC TARGETS WITH AN ANTI-INFLAMMATORY AND ANTI-INTERFERON EFFECT” (UNIVERSITÉ PARIS CITÉ, priority 2020, published 2023)

How the values were obtained:
[1] = tested on: peripheral blood mononuclear cells (PBMCs); assay: Cell toxicity on PBMCs, ATP quantification with CellTiter Glo; assay type: cell-based, human; settings: cGAMP 24 h
activated immune cells = assay: Secretion of inflammatory cytokines and interferons by activated immune cells placed in contact with ROCK inhibitor; assay type: cell-based; settings: compared with activated immune cells not placed in contact with the inhibitor
[2] = tested on: THP1-Dual human monocyte cell line; assay: Interferon response of cGAMP-activated THP1-Dual cells, luciferase; settings: inhibitor 1 h before cGAMP 3 μg/ml, 24 h, luciferase (FIG. 22B, 23B)
[3] = tested on: peripheral blood mononuclear cells (PBMCs); assay: Interferon production by cGAMP-activated PBMCs, STING-37 reporter cell line; settings: inhibitor 1 h before cGAMP 3 μg/ml, 24 h, STING-37 reporter (FIG. 22A, 23A)
[4] = tested on: peripheral blood mononuclear cells (PBMCs) of healthy donors; assay: Secretion of inflammatory cytokines and interferons by PBMCs after TLR7/8 (R848) stimulation, LegendPlex
[5] = tested on: HEK293 non-immune cell line; assay: Interferon production by cGAMP-activated HEK293 non-immune cells (STING-37), luciferase; settings: inhibitor at 1 μM (FIG. 23C)
[6] = tested on: neurones infected by the prions; assay type: cell-based
[7] = tested on: THP1-Dual human monocyte cell line; assay: Cell toxicity on THP1-Dual, ATP quantification with CellTiter Glo; assay type: cell-based; settings: cGAMP 24 h
[8] = tested on: peripheral blood mononuclear cells (PBMCs) of healthy donors; assay: Secretion of inflammatory cytokines and interferons by PBMCs in response to HIV, LegendPlex; assay type: cell-based, human; settings: 24 h, LegendPlex (FIG. 13)
[9] = tested on: peripheral blood mononuclear cells (PBMCs) of healthy donors; assay: Secretion of inflammatory cytokines and interferons by PBMCs after TLR4 stimulation, LegendPlex; assay type: cell-based, human; settings: 24 h, LegendPlex (FIG. 7)
[10] = tested on: monocytes of healthy donors; assay: Intracellular TNFα production in monocytes after TLR7/8 (Resiquimod-R848) stimulation, flow cytometry; assay type: cell-based, human; settings: inhibitor 1 h before R848 (TLR7/8), 16 h, flow cytometry (FIG. 1, 2)
Method: (§1) The cells were rinsed in PBS then incubated with a viability dye (Zombie Aqua, Biolegend) for 30 min at ambient temperature. After washing, the cells were resuspended in PBS containing 2% SVF and 2 mM EDTA then labelled with the APC Vio770 anti-CD14 (clone REA599) antibody from Miltenyi Biotec, used at 1/100°. […] Data acquisition was carried out on the Canto 11 flow cytometer using the Diva software (BD Biosciences, San Jose, Calif.). The Kaluza software was used to analyze the data.

[11] = tested on: plasmacytoid dendritic cells (pDC) of healthy donors; assay: Intracellular IFNα and TNFα in plasmacytoid dendritic cells in response to HIV, flow cytometry; assay type: cell-based, human; settings: AT-2-inactivated HIV-1MN, 16 h
Method: The cells were rinsed in PBS then incubated with a viability dye (Zombie Aqua, Biolegend) for 30 min at ambient temperature. After washing, the cells were resuspended in PBS containing 2% SVF and 2 mM EDTA then labelled with the APC Vio770 anti-CD14 (clone REA599) antibody from Miltenyi Biotec, used at 1/100°. For the intracellular labelling of TNFα and IFNα, the “Inside Stain” kit (Miltenyi Biotec) was used according to the manufacturer's protocol. The cells were fixed for 20 min at ambient temperature with 250 μL Inside Fix solution then labelled in 100 μL Inside Perm solution containing the APC anti-TNFα (Miltenyi Biotec) and/or PE anti-IFNα (Miltenyi Biotec) antibody at 1/50° for 30 min at ambient temperature. Data acquisition was carried out on the Canto II flow cytometer using the Diva software (BD Biosciences, San Jose, Calif.). The Kaluza software was used to analyze the data.

[12] = tested on: monocytes of healthy donors; assay: Intracellular TNFα production in monocytes after TLR2 (lipoteichoic acid, LTA) stimulation, flow cytometry; assay type: cell-based, human; settings: inhibitor 1 h before LTA (TLR2) 1 μg/ml, 16 h, flow cytometry (FIG. 6)
Method: (§2) The cells were rinsed in PBS then incubated with a viability dye (Zombie Aqua, Biolegend) for 30 min at ambient temperature. After washing, the cells were resuspended in PBS containing 2% SVF and 2 mM EDTA then labelled with the APC Vio770 anti-CD14 (clone REA599) antibody from Miltenyi Biotec, used at 1/100°. […] The cells were fixed for 20 min at ambient temperature with 250 μL Inside Fix solution then labelled in 100 μL Inside Perm solution containing the PE anti-TNFα (Miltenyi Biotec) and/or APC anti-IL-1β (Miltenyi Biotec) antibody at 1/50° for 30 min at ambient temperature. Data acquisition was carried out on the Canto II flow cytometer using the Diva software (BD Biosciences, San Jose, Calif.). The Kaluza software was used to analyze the data.

[13] = tested on: peripheral blood mononuclear cells (PBMCs) of healthy donors; assay: Interferon secretion by R848-stimulated PBMCs, inhibitor before, during or after stimulation, STING-37 reporter cell line; assay type: cell-based, human
[14] = tested on: monocytes of patients suffering from juvenile idiopathic arthritis; assay: Spontaneous TNFα production by monocytes of juvenile idiopathic arthritis patients, SIMOA (digital ELISA); assay type: cell-based, human; settings: inhibitor 24 h, SIMOA (FIG. 16)
Method: The assay of the TNFα secreted by the monocytes of a patient suffering from juvenile idiopathic arthritis was carried out by SIMOA (digital ELISA).

[15] = tested on: monocytes of healthy donors; assay: Intracellular IL1β and TNFα in monocytes after inflammasome activation by uric acid crystals (MSU, gout model), flow cytometry; assay type: cell-based, human
Method: as §1, with “II” for “11”

[16] = tested on: peripheral blood mononuclear cells (PBMCs) of healthy donors; assay: Toxicity on PBMCs (CellTiter-Glo), HIV; assay type: cell-based, human; settings: PBMCs of healthy donors infected with HIV, 24 h, CellTiter-Glo (FIG. 14)
Method: (§3) After 24 h of cell culture, the cell viability was determined using the CellTiter-Glo reagent (Promega), which evaluates the amount of ATP by luminescence using the EnSpire.

[17] = tested on: immune cells (PBMCs and purified monocytes) of healthy donors; assay: Production of inflammatory cytokines by PBMCs and purified monocytes after TLR2/4 stimulation by bacterial agents; assay type: cell-based, human; settings: TLR 2/4 stimulation by lipoteichoic acid/LPS
[18] = tested on: peripheral blood mononuclear cells (PBMCs) of healthy donors; assay: Toxicity on PBMCs (CellTiter-Glo), TLR4 stimulation; assay type: cell-based, human; settings: 24 h, CellTiter-Glo (FIG. 8)
Method: as §3

[19] = tested on: monocytes of healthy donors; assay: Intracellular TNFα production in monocytes after TLR4 (LPS) stimulation, flow cytometry; assay type: cell-based, human; settings: inhibitor 1 h before LPS (TLR4) 100 ng/ml, 16 h, flow cytometry (FIG. 5)
Method: as §2

[20] = tested on: peripheral blood mononuclear cells (PBMCs) of healthy donors; assay: Toxicity on PBMCs (CellTiter-Glo), TLR7/8 stimulation; assay type: cell-based, human; settings: TLR 7/8 stimulation, 24 h, CellTiter-Glo (FIG. 4)
Method: Test for toxicity of the compounds on the peripheral blood mononuclear cells (PBMCs).
as §3

[21] = PBMCs of healthy donors, inhibitor 1 h before R848 (TLR7/8), 24 h, LegendPlex (FIG. 3)

For `Cc1cncc2cccc(S(=O)(=O)N3CCCNCC3C)c12` (stereo not drawn) [dimethylfasudil], the “viability of the PBMCs” value [1] was “without affecting the viability”, the “secretion of the inflammatory cytokines (TNFα, IL-1β, IL6, MCP1 (CCL2)) and of the interferons (IFN)” value (activated immune cells) was “inhibits the secretion” and the “production of interferons (IFN) induced by the cGAMP” value [2] was “blocks the production of interferons (IFN) induced by the cGAMP according to a dosage effect starting from 1 μM”. The “production of interferons (IFN) induced by the cGAMP” value [3] was “blocks the production of interferons (IFN) induced by the cGAMP according to a dosage effect starting from 1 μM”, the “production of TNFα and of pro-inflammatory cytokines such as IL-6, IL-1β and the interferons induced by the TLR7/8 stimulation” value ([4]; human PBMCs incubated with inhibitor before R848 stimulation) was “inhibits the production” and the “production of interferon induced by the STING ligand” value [5] was “does not block”. For the same molecule, the “level of TNFα in the culture medium” value [6] was “re-establishes a “normal” level” and the “viability of the THP1-Dual” value [7] was “without affecting the viability”.

In the case of BX912, the “secretion of the inflammatory cytokines (IL-6, IL-1β, TNFα, IP10)” value [8] is reported as “inhibits the secretion”, the “secretion of the interferons (IFNα2, IFNβ, IFNI1)” value [8] is reported as “inhibits the secretion” and the “secretion of the inflammatory cytokines (IL-6, IL-1β, TNFα, GM-CSF, IL-10)” value [9] is reported as “inhibits the secretion”. The “secretion of the interferons (IFNI2/3, IFNβ, IFNg)” value [9] was “inhibits the secretion”, the “intracellular production of inflammatory cytokines (TNFα)” value [10] was “inhibits, according to a dosage effect” and the “secretion of the inflammatory cytokines (IL-6, IL-1β, TNFα, IP10, GM-CSF, IL-10)” value [4, 21] was “inhibits the secretion”. For the same molecule, the “secretion of the interferons (IFNI1, IFNI2/3, IFNβ, IFNg)” value [4, 21] was “inhibits the secretion”, the “intracellular production of interferon IFNα” value ([11]; flow cytometry (FIG. 11)) was “inhibits the intracellular production” and the “production of TNFα” value ([11]; flow cytometry (FIG. 12)) was “inhibits the production”. The “production of inflammatory cytokines (TNFα)” value [12] was “inhibits, according to a dosage effect”, the secretion of interferons ([13]; inhibitor during the TLR 7/8 stimulation, STING-37 reporter (FIG. 15B)) was “blocking” and the secretion of interferons ([13]; inhibitor in a curative manner, 1 h after TLR 7/8 stimulation, STING-37 reporter (FIG. 15C)) was “blocking”. The secretion of interferons ([13]; inhibitor in a preventive manner, 1 h before TLR 7/8 stimulation, STING-37 reporter (FIG. 15A)) was “blocking”, the “spontaneous production of TNFα” value [14] was “inhibits the spontaneous production” and the “production of inflammatory cytokines” value ([15]; activation of the inflammasome by uric acid crystals (mimicking gout)) was “capable of inhibiting the production of inflammatory cytokines”. For the same molecule, the “intracellular production of IL1β” value ([15]; uric acid crystals (MSU) 50 μg/ml, 16 h, gout model (FIG. 9)) was “inhibits the intracellular production”, the “production of TNFα” value ([15]; uric acid crystals (MSU) 50 μg/ml, 16 h, gout model (FIG. 10)) was “inhibits the production” and the “toxicity on PBMCs” value [16] was “no toxicity”. The “production of inflammatory cytokines” value [17] was “capable of inhibiting the production of inflammatory cytokines”, the “toxicity on PBMCs” value [18] was “no toxicity” and the “production of inflammatory cytokines (TNFα)” value [19] was “inhibits, according to a dosage effect”. For the same molecule, the “toxicity on the immune cells (PBMCs)” value [20] was “no toxicity”.
